Laboratory results published in patent US20080206367A1, “Morinda Citrifolia-based Formulations and Methods for Weight Management” (priority 2004, published 2008).

Target: T1, CCK1 receptor (Rattus norvegicus, UniProt P30551)
T1 construct: from tissue; host or cells: live male rats (in vivo; gastrointestinal tract)
T1 sequence (P30551 1-444): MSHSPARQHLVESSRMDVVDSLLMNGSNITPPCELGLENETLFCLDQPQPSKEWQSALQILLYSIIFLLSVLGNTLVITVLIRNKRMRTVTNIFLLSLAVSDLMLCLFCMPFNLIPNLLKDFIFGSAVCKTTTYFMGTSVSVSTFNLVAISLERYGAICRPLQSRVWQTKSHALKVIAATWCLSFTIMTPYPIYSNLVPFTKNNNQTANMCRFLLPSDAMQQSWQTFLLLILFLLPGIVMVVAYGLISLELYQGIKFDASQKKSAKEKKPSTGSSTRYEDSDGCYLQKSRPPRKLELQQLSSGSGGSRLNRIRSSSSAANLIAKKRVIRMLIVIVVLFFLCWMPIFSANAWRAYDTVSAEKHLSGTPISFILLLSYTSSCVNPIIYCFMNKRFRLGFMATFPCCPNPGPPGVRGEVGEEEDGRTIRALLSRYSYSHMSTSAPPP
Experiment: Effects of lorglumide on noni-mediated inhibition of gastric emptying and intestinal transit
Type: in vivo
Conditions: lorglumide i.p. 15 min before test meal, rats given noni 1 ml/kg orally for 7 days
Method: Male rats were divided into four groups and fasted for 24 h before use. Fifteen min before gastric intubation of a non-nutrient liquid meal, the animals were injected i.p. with the following compounds in 1 ml/kg: group 1 received dimethyl sulfoxide (DMSO), […], respectively. Groups 2-4 received 1 ml/kg of noni orally once daily for 7 days.
Gastric emptying and intestinal transit were measured. Rats were intubated via a catheter with physiological saline (3 ml/kg) containing Na2^51CrO4 (0.5 μCi/ml) and 10% charcoal. The test meal was continuously stirred before intubation. Air (0.5 ml) was injected to flush the residual charcoal suspension in the catheter into rat stomach. Fifteen minutes later, the rats were decapitated and the stomach with the attached small intestine was immediately exposed by laparotomy. […] The small intestine was then divided into ten equal segments, and the radioactivity in the stomach and each segment of small intestine was measured in an automatic gamma counter. Gastric emptying was measured by determining the amount of labeled chromium contained in the small intestine fifteen minutes after intubation, expressed as a percentage of the amount given. Intestinal transit was assessed by calculating the geometric center of distribution of the radioactivity within the 10 segments by summation of the radioactivity in each segment multiplied by the segment number.

CCCCCN(CCCCC)C(=O)C(CCC(=O)O)NC(=O)c1ccc(Cl)c(Cl)c1 (centres unmarked) [lorglumide]
Noni-induced inhibition of intestinal transit: not altered
Noni-induced inhibition of gastric emptying (P<0.01): significantly prevented
